In patent publication US20040122209A1, “Products for regulating the degradation of collagen and methods for identifying same” (Shriners Hospital For Children, priority 2002, published 2004):

What was measured:
MMP-13 = assay: RT-PCR of MMP-13 mRNA in human chondrocyte culture; assay type: cell-based; conditions: 24 hours incubation; data not shown
Description: Isolated normal human chondrocytes were used for chondrocyte cultures, detection of integrin expression by FACScan, and cell attachment assays. The dissected normal human cartilage obtained at autopsy was cut into small cubes 2-4 mm in size. Chondrocytes were isolated as previously described (34), with some modifications. Briefly, the cubes were washed three times with medium (A). Thereafter, the diced cartilage was digested with 0.1% (wt/vol) trypsin (Sigma) and 0.02% (wt/vol) EDTA (Sigma) for 60 minutes (25 ml/10 g wet weight tissue) at 37° C. After washing the cartilage with Medium A containing 10% heat-inactivated fetal calf serum (FCS) to inhibit the trypsin, the digestion was continued in the same medium with serum (50 ml/10 g wet weight tissue) containing 0.2% (wt/vol) collagenase (type IA; Sigma) for 16 h at 37° C. with gentle agitation on a gyrotary shaker. Undigested cartilage was removed by filtration through a layer of nylon mesh (Cell Strainer; Becton Dickinson Labware, NJ). […]
Total RNA was isolated from chondrocytes or cartilage explants by the guanidine isothiocyanate procedure according to Chomczynski and Sacchi (Chomczynski, P. et al., Anal. Biochem. 162:156-9 (1987)) with some modifications. […] The total RNA pellet was resuspended in diethyl pyrocarbonate-treated (DEPC) water and the amount of total RNA was measured by reading optical density at 260 nm. […]

ERK1/2 = assay: Western immunoblot for phosphorylated ERK1/2 in human chondrocytes; assay type: cell-based
Protocol: To detect activation of MAP kinases (ERK1/2, p38 MAPK, and JNK1/2), first-passaged chondrocytes plated onto 10-cm culture dishes were incubated with CB12-II (SP), USP, TNF-α, native human type II collagen, human fibronectin, and antibodies to α2β1 and α5β1 for 5-60 min. In some experiments, chondrocytes were precultured with U0126 (inhibitor of phosphorylation of MEK1/2, up-stream kinase molecule of ERK1/2) at 1 μM for 1 h, SB203580 (inhibitor of phosphorylation of p38 MAPK) at 1 μM for 1 h, Herbimycin A (tyrosine kinase inhibitor) at 1 μg/ml for overnight, Wortmannin (PI3 kinase inhibitor) at 100 nM for 1 h, and Cytochalasin D (focal adhesion inhibitor) at 3 μM for 30 or 60 min before adding peptides.
After a variable but designated incubation time, chondrocytes were washed twice with ice cold PBS and lysed in RIPA buffer (10 mM Tris/HCl, pH 7.4, 0.1% SDS, 1% NP-40, 0.1% sodium deoxycholate, 150 mM NaCl, 1 mM EDTA) containing freshly added proteinase and phosphatase inhibitors (1 mM PMSF, 10 μg/ml leupeptin, 1 μg/ml aprotinin, 1 mM Na3VO4, 1 mM NaF). Cell lysate was centrifuged and supernatant was collected. Protein concentration was determined using Bradford's method. Equal amounts of protein were separated on 10% SDS-polyacrylamide gels under reducing conditions and were electrotransferred to a nitrocellulose membrane (Bio-Rad). To block nonspecific binding, the membranes were incubated in PBS containing 5% non-fat milk overnight at 4° C. The membranes were then probed with rabbit antibodies against phosphorylated ERK1/2, p38, and JNK1/2 (New England BioLabs). Antibodies were diluted 1:1000 in PBS containing 0.5% non-fat milk and reacted with the membrane for 1 h at room temperature. Blots were washed with PBS containing 0.1% Tween-20 three times, and incubated for 1 h at room temperature with horseradish peroxidase (HRP)-conjugated goat anti-rabbit IgG (New England BioLabs) diluted 1:2000 with PBS-0.1% Tween 20 for ECL system (Amersham). Then, the membranes were washed with PBS-Tween, and the membranes were detected with the addition of a 1:1 dilution of the ECL detection reagents (Amersham) 1 and 2 for 1 min. The solution was removed, and the membranes were wrapped in plastic wrap and exposed to film for various amounts of time.
First-passaged confluent human chondrocytes were treated with CB12-II (SP) (10 μM), USP (10 μM), anti-α2β1and α5β1 antibodies, anti-integrin α2β1 blocking antibody, and IL-1β or TNF-α. Cell lysates were immunoblotted using antibody that detects phosphorylated p-ERK1I/2 or p-MEK. In some experiments, U0126 at 10 μM, a specific inhibitor of an upstream molecule, MEK1/2, that activates ERK1/2, and SB203580 at 10 μM, that inhibits p38 MAPK activity, were added to the culture 1 h before peptides, antibodies, and cytokines. Herbimycin A, cytochalasin D, and wortmannin were also used as inhibitors.

ERGPPGPQGARGFPGTPGLPGVK [CB12-II]
MMP-13 gene expression (mRNA by RT-PCR) (MMP-13): weakly upregulated
phosphorylation of ERK1/2 compared with USP at the same concentration (ERK1/2; 10 μM): more than USP
time of maximum ERK1/2 phosphorylation (ERK1/2; 10 μM): 15 to 30 min
time to phosphorylation of ERK1/2 after adding peptide (ERK1/2; 10 μM): ≤ 5 min
phosphorylation of ERK 1/2, dose dependence (ERK1/2; 1, 10 and 50 μM, 15 min after addition): dose-dependently
